Columns and labels:
[1] = biological target: 5-hydroxytryptamine receptor 1D (Homo sapiens, UniProt P28221); experiment: Affinity at 5-hydroxytryptamine 1D receptor (For sumatriptan = Ki (nM)-12+/-1.9)
[2] = biological target: 5-hydroxytryptamine receptor 2A (Rattus norvegicus, UniProt P14842); experiment: Affinity at 5-hydroxytryptamine 2 receptor (For ketanserin = Ki(nM)= 0.7+/-0.09)
[3] = biological target: T1, Adrenergic receptor alpha-2 (Rattus norvegicus, UniProt P22086+P19328+P22909); experiment: Affinity towards alpha-2 adrenergic receptor (For clonidine Ki(nM)= […]+/-[…]); assay type: protein assay
T1 sequence (P22086 whole entry): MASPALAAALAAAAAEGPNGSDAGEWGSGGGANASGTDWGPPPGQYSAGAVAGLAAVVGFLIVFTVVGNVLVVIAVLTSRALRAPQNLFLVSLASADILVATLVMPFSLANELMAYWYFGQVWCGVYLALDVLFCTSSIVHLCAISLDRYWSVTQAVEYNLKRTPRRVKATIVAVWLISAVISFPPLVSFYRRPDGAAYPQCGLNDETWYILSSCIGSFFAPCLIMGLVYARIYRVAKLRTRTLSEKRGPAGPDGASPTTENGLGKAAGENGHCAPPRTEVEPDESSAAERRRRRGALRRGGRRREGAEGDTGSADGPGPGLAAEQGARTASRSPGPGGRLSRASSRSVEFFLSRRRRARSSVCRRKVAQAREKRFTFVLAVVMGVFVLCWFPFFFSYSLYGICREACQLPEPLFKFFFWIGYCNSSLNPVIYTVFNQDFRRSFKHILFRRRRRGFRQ
T1 sequence (P19328 whole entry): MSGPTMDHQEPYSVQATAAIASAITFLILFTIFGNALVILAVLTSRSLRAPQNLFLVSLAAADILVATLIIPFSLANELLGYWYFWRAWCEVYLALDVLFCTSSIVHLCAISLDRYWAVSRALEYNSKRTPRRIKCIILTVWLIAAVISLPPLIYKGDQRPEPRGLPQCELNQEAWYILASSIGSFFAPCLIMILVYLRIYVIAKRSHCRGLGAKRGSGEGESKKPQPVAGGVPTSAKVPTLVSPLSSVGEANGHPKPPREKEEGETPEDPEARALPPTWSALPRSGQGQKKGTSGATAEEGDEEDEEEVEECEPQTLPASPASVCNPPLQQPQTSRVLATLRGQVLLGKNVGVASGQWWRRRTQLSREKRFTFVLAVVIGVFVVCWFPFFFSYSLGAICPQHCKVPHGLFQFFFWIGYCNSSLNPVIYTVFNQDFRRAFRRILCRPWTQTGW
T1 sequence (P22909 whole entry): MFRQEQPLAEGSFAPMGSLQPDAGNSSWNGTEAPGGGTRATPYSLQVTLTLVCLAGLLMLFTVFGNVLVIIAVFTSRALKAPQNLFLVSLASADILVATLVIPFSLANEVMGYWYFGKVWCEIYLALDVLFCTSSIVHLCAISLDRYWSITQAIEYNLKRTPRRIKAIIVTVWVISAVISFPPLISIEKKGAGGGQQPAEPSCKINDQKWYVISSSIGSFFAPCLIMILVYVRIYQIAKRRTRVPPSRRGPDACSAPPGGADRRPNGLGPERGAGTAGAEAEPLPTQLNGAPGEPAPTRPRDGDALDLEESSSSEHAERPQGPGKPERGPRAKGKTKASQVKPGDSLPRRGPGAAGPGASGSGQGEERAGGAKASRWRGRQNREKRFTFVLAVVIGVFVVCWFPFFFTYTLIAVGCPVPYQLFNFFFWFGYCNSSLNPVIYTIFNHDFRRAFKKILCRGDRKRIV

[4] = biological target: D(2) dopamine receptor (Rattus norvegicus, UniProt P61169); experiment: Affinity at dopamine D2 receptor, (For haloperidol Ki(nM)= 1.5+/-1.2)
Chain of D(2) dopamine receptor (P61169 whole entry): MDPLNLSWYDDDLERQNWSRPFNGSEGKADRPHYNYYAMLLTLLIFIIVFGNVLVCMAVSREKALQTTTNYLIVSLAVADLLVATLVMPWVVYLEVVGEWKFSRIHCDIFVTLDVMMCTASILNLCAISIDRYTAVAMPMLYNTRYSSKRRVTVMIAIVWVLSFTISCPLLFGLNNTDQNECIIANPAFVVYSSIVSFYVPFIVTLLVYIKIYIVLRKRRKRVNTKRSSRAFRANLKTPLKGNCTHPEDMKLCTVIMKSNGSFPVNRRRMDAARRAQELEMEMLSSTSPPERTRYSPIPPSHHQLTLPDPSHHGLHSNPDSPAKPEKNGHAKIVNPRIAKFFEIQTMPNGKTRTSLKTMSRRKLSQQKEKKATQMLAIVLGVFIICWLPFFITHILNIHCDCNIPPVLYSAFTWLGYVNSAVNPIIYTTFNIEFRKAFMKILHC

[5] = test system: Mus musculus; experiment: Antidepressant-like activity in the forced swimming test (FST) in mice at 1 mg/kg dose; assay type: functional
[6] = test system: Mus musculus; experiment: Antidepressant-like activity in the forced swimming test (FST) in mice at 0.1 mg/kg dose; assay type: functional
[7] = biological target: Muscarinic acetylcholine receptor; experiment: Affinity at muscarinic receptor, (For atropine Ki(nM)= 3.5+/-0.3); assay type: protein assay
[8] = biological target: T1, Adrenergic receptor alpha-2; experiment: Affinity towards alpha-2 adrenoceptor from rat cortex using [3H]-clonidine as radioligand (For clonidine Ki(nM)= […]+/-[…])
[9] = test system: Mus musculus; experiment: Effect on immobility time in the forced swimming test (FST) in mice at 0.001 mg/kg dose; assay type: functional
[10] = test system: Mus musculus; experiment: Antidepressant-like activity in the forced swimming test (FST) in mice at 0.001 mg/kg dose; Antidepressant like activity; assay type: functional
[11] = test system: Mus musculus; experiment: Antidepressant-like activity in the forced swimming test (FST) in mice at 1 mg/kg dose; Antidepressant like activity; assay type: functional
[12] = test system: Mus musculus; experiment: Antidepressant-like activity in the forced swimming test (FST) in mice at 10 mg/kg dose; Antidepressant like activity; assay type: functional
[13] = test system: Mus musculus; experiment: Time-dependent effect on 8-OH-DPAT-induced hypothermia (change in body temperature) after 30 min, in mice at 0.01 mg/kg dose; assay type: functional
[14] = test system: Mus musculus; experiment: Time-dependent effect on 8-OH-DPAT-induced hypothermia (change in body temperature) after 60 min, in mice at 0.01 mg/kg dose; assay type: functional
[15] = biological target: Muscarinic acetylcholine receptor; experiment: Affinity at muscarinic receptor from rat cortex using [3H]-QNB as radioligand (For atropine Ki(nM)= 3.5+/-0.3)
[16] = test system: Rattus norvegicus; experiment: Effect on helpless behavior in rats and the number of escape failures was determined in shuttle-box session-1 (SB-1) at 10 mg/kg dose; assay type: functional
[17] = test system: Rattus norvegicus; experiment: Effect on helpless behavior in rats and the number of escape failures was determined in shuttle-box session-2 (SB-2) at 10 mg/kg dose; assay type: functional
[18] = test system: Rattus norvegicus; experiment: Effect on helpless behavior in rats and the number of escape failures was determined in shuttle-box session-3 (SB-) at 1 mg/kg dose; assay type: functional
[19] = test system: Rattus norvegicus; experiment: Effect on helpless behavior in rats and the number of escape failures was determined in shuttle-box session-3 (SB-3) at 10 mg/kg dose; assay type: functional
[20] = biological target: T2, 5-hydroxytryptamine receptor 1A (Homo sapiens) (UniProt P08908); experiment: Percent increase in the Forskolin-Stimulated cAMP formation, in HeLa cells transfected with the 5-HT 1A receptor a [compound (1 uM)]; assay type: functional, cell-based
T2 sequence (whole entry): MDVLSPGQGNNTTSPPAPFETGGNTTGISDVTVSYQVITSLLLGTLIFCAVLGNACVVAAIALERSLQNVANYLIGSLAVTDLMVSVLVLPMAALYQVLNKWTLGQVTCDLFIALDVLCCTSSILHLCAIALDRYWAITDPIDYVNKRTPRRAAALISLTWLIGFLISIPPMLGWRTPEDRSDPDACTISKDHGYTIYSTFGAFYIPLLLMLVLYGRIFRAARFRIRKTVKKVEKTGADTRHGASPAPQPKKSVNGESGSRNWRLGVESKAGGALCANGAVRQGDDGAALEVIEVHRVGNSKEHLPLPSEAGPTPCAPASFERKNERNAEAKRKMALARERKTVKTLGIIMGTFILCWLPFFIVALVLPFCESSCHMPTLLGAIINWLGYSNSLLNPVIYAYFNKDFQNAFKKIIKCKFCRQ

Chain of 5-hydroxytryptamine receptor 2A (P14842 whole entry): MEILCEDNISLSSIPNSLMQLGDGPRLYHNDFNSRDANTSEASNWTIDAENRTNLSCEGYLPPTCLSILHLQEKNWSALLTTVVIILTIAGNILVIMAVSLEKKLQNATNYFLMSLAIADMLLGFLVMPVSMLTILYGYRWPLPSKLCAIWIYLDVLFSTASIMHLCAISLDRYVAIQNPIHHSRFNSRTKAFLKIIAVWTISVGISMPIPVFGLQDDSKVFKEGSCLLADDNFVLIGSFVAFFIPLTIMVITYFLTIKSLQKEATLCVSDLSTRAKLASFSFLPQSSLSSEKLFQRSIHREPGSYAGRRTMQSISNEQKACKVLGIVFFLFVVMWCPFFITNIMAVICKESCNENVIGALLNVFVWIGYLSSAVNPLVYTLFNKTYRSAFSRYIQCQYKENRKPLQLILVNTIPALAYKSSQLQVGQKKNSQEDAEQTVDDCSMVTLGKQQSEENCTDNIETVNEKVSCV
Chain of 5-hydroxytryptamine receptor 1D (P28221 whole entry): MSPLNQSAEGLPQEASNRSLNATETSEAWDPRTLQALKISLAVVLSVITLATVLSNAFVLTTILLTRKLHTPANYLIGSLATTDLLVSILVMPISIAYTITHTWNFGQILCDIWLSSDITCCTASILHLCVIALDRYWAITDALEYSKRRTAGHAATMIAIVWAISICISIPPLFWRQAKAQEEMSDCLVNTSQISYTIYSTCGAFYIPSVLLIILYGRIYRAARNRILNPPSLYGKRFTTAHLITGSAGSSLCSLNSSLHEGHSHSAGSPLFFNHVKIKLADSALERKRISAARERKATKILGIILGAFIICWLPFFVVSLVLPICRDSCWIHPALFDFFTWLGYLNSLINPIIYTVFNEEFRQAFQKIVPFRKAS

Row | Ki [1] | Ki [2] | Ki [3] | Ki [4] | Ki [7] | cAMP increase [20] | SMILES | Activity [5] | Activity [6] | Ki [8] | Immobility time [9] | Activity [10] | Activity [11] | Activity [12] | Temperature change [13] | Temperature change [14] | Ki [15] | No. of escape failures [16] | No. of escape failures [17] | No. of escape failures [18] | No. of escape failures [19]
1 | 5 µM | 5 µM | 0.28 µM | 0.5 µM | > 5 µM | – | COc1ccccc1N1CCN(CCC(=O)c2csc3ccccc23)CC1 | 60% | 18% | – | – | – | – | – | – | – | – | – | – | – | –
2 | – | – | – | – | – | – | COc1ccccc1N1CCN(CCC(O)c2csc3ccccc23)CC1 (centres undefined) | – | – | 2 µM | <58.8 s | 67% | 33% | 1% | -1.3 °C | -0.73 °C | > 5 µM | 6.6 | 3.2 | 1.8 | 4
3 | – | – | – | – | – | 52% | COc1ccccc1N1CCN(CCC(Oc2cccc3ccccc23)c2ccsc2)CC1 (centres undefined) | – | – | 5 µM | – | – | 48% | 49% | – | – | > 5 µM | – | – | – | –

From ChEMBL document CHEMBL1134339, “New 1-aryl-3-(4-arylpiperazin-1-yl)propane derivatives, with dual action at 5-HT1A serotonin receptors and serotonin transporter, as a new class of antidepressants” (J Med Chem, 2001)
